Values quoted from earlier work as cited in US20070167418A1 (priority 2004, published 2007).
Where two headings read alike, the source gives them in different places.

Assays:
ED = conditions: oral
men with ED [1] = conditions: intraurethral suppositories
[2] = in vivo
men with ED [3] = conditions: 100 mg; placebo twenty-two percent
[4] = not given; remark: listed apart in the source

COC(=O)[C@@H]1[C@H]2C[C@H]3c4[nH]c5ccccc5c4CCN3C[C@@H]2CC[C@@H]1O [Yohimbine]
efficacy in the treatment of ED (ED): limited efficacy

CCCCC[C@H](O)/C=C/[C@H]1[C@H](O)CC(=O)[C@@H]1CCCCCCC(=O)O [alprostadil]
efficacy compared with penile injection (men with ED [1]): less effective

CC(C)NCC(O)COc1ccc(CC(N)=O)cc1 (stereo not shown) [atenolol]
men reporting ED after beginning treatment (50 mg, men informed of its sexual adverse effects): 31% | men reporting ED after beginning treatment (similarly treated, men blinded as to the study drug): 3%

CCCc1nn(C)c2c(=O)[nH]c(-c3cc(S(=O)(=O)N4CCN(C)CC4)ccc3OCC)nc12 [sildenafil]
half-life [2]: four to five | men achieving successful intercourse (men with ED [3]): sixty-nine

CN1CC(=O)N2[C@H](c3ccc4c(c3)OCO4)c3[nH]c4ccccc4c3C[C@@H]2C1=O [tadalafil]
half-life [2]: approximately eighteen

C[C@]12CC[C@H]3[C@@H](CCC4=CC(=O)CC[C@@]43C)[C@@H]1CC[C@@H]2O [testosterone]
restoring physiological testosterone levels ([4]; gels): high efficacy | men with erythrocytosis ([4]; gels or patches): 5% | men with gynecomastia, peripheral edema, exacerbation or de novo sleep apnea, acne and mild weight gain ([4]; in vivo): less than 2% | men with erythrocytosis ([4]; injections): ≤ 50% | hepatotoxicity risk ([4]; oral agents available in the United States): significant risk of hepatotoxity | liver toxicity ([4]; transdermal or intramuscular preparations): does not seem to be associated | men with local skin reactions ([4]; transdermal, patches): ≤ 40%

CCCc1nc(C)c2c(=O)[nH]c(-c3cc(S(=O)(=O)N4CCN(CC)CC4)ccc3OCC)nn12 [vardenafil]
half-life [2]: four to five | time of peak serum concentrations [2]: approximately one
